From patent US12605374B2, “Methods for drug screening and compositions useful for the inhibition of cell proliferation and/or cell survival” (The Brigham and Women's Hospital, Inc., priority 2019, dated 2026)
“Also recorded” adds a separate entry of the source.

Tests used:
embryonic zebrafish = assay: Blinded re-screen of top 10 prioritized ChemBridge compounds for developmental phenotypes in embryonic zebrafish; type: in vivo; details: for Phenotype Observed: embryonic zebrafish, 10 uM introduced at 5 hpf, scored at 24 and 48 hpf, blinded, in duplicate
Method: Male and female wild-type (AB) fish were housed and embryos bred for screening using standard protocols. […] 10 mM compound stocks were diluted to 2 mM using DMSO, and 1 μL of each diluted compound solution was introduced into individual wells at 5 hours post fertilization (hpf) using a manual multichannel pipettor (10 uM final concentration). The first and last column of each plate received only DMSO, serving as negative control wells.
Embryos were screened for a series of developmental phenotypes at both 24 and 48 hpf using standard light microscopy. […] Only those wells where at least two of the three embryos were dead or delayed were annotated as a hit for 24 hour death or delay/arrest, respectively.
Resulting scores for each phenotype were used to rank the over 900,000 compounds. Enrichment for compounds with high (>0.95) similarity to known therapeutics (defined using Tanimoto Coefficient of molecular fingerprints) was calculated for each of the 6 ranked lists using gene set enrichment analysis^69. The top 10 highest-ranking compounds from each of the 6 lists were screened as described above, blinded and in duplicate.

zebrafish embryos = assay: Rescue of developmental delay/arrest phenotype by phospholipase products; type: in vivo; details: for rescue of the developmental delay/arrest phenotype of DA5: zebrafish embryos treated with DA5
Text: FIG. 15 (A)-(B): Effect of timing and injection on DA5 rescue. Rescue of the DA5 phenotype was compared using introduction of phosphatidic acid (PAC) in-well, versus injected into the embryo at the 1-cell developmental stage (A; DA5 introduced at 5 hpf).
Given the known role of anoxia in cancer cell proliferation, we investigated the potential of the DA compounds to inhibit cancer cell growth in cell culture. We found a significant reduction in the proliferation of immortalized cells upon introduction of all DA compounds (FIG. 16).

## COc1ccccc1Nc1nc(-c2ccncc2)cs1 [ChemBridge ID 5745969]
Embryonic zebrafish; Prediction: Dead
  Hit (predicted phenotype observed): No
Embryonic zebrafish
  Phenotype Observed: Multiple severe phenotypes

## Br.COc1ccccc1Nc1nc(-c2sc(C)nc2C)cs1 [ChemBridge ID 5931065]
Embryonic zebrafish; Prediction: Dead
  Hit (predicted phenotype observed): Yes
Embryonic zebrafish
  Phenotype Observed: Dead (48 h)

## CC(NCc1ccccc1O)C12CC3CC(CC(C3)C1)C2 (stereo not drawn) [ChemBridge ID 6108849]
Embryonic zebrafish; Prediction: Pigmentation
  Hit (predicted phenotype observed): Yes
Embryonic zebrafish; Prediction: Pigmentation Only
  Hit (predicted phenotype observed): Yes
Embryonic zebrafish
  Phenotype Observed: No pigmentation, dying

## O=C(Nc1ccccc1Cl)N1CCN(c2ccccc2F)CC1 [ChemBridge ID 7008803]
Embryonic zebrafish; Prediction: Cranial Edema
  Hit (predicted phenotype observed): No
Embryonic zebrafish
  Phenotype Observed: slight discoloration

## COCC1CCN(C(=O)c2cc(COc3ccc4ncccc4c3)on2)CC1 [ChemBridge ID 13197878]
Embryonic zebrafish; Prediction: Delay/Arrest
  Hit (predicted phenotype observed): Yes
Embryonic zebrafish
  Phenotype Observed: Bud stage at 24 h, dead at 48 h

## CCOC(=O)C1(CCc2ccccc2)CCCN(Cc2nccn2CC)C1 (stereo not drawn) [ChemBridge ID 13300080]
Embryonic zebrafish; Prediction: Pigmentation
  Hit (predicted phenotype observed): Yes
Embryonic zebrafish; Prediction: Pigmentation Only
  Hit (predicted phenotype observed): Yes
Embryonic zebrafish
  Phenotype Observed: No pigmentation, dying; also recorded: No pigmentation, slow heart beat

## CN(CC1CCN(CCc2ccc(Cl)cc2)CC1)C(=O)c1ccccc1-n1cccn1 [ChemBridge ID 18069546]
Embryonic zebrafish; Prediction: Cardiac
  Hit (predicted phenotype observed): Yes
Embryonic zebrafish
  Phenotype Observed: Pericardial edema, no heart beat

## COC(=O)c1ccc(-c2noc(CN(Cc3ccncc3)CC3CCCO3)n2)cc1 (stereo not drawn) [ChemBridge ID 18809966]
Embryonic zebrafish; Prediction: Body Axis
  Hit (predicted phenotype observed): Yes
Embryonic zebrafish
  Phenotype Observed: Small body (appear dorsalized)

## O=C(c1cc(COc2ccc3ncccc3c2)on1)N1C[C@@H]2C[C@H]3C[C@@H](C2)C[C@@H]1C3 [ChemBridge ID 19759648]
Embryonic zebrafish; Prediction: Delay/Arrest
  Hit (predicted phenotype observed): Yes
Embryonic zebrafish
  Phenotype Observed: Bud stage at 24 h, dead at 48 h

## COC(=O)c1ccc(-c2nc(CN3CCCCC3c3cccc(OC)c3)c(C)o2)cc1 (stereo not drawn) [ChemBridge ID 20494296]
Embryonic zebrafish; Prediction: Body Axis
  Hit (predicted phenotype observed): Yes
Embryonic zebrafish
  Phenotype Observed: Short, no heads

## O=C(c1cc(COc2ccc3ncccc3c2)on1)N1CCCC(OCc2ccccn2)C1 (stereo not drawn) [ChemBridge ID 21652166]
Embryonic zebrafish; Prediction: Delay/Arrest
  Hit (predicted phenotype observed): Yes
Embryonic zebrafish
  Phenotype Observed: 5-10 somite stage at 48 h

## COC(=O)c1ccc(-c2nc(CN3CCCCC3c3nc4cc(F)ccc4[nH]3)c(C)o2)cc1 (stereo not drawn) [ChemBridge ID 22685803]
Embryonic zebrafish; Prediction: Body Axis
  Hit (predicted phenotype observed): Yes
Embryonic zebrafish
  Phenotype Observed: Most dead, remaining have small bodies

## CCOC(=O)C1(CCOc2ccccc2)CCN(Cc2cc(OC)cc(OC)c2)CC1 [ChemBridge ID 23490385]
Embryonic zebrafish; Prediction: Cardiac
  Hit (predicted phenotype observed): Yes
Embryonic zebrafish; Prediction: Cranial Edema
  Hit (predicted phenotype observed): No
Embryonic zebrafish
  Phenotype Observed: Pericardial edema, no heart beat

## CSc1ccc(-c2nc(CN3CCCCC3c3nccn3C)c(C)o2)cc1 (stereo not drawn) [ChemBridge ID 23702187]
Embryonic zebrafish; Prediction: Pigmentation
  Hit (predicted phenotype observed): Yes
Embryonic zebrafish
  Phenotype Observed: No pigmentation, cranial edema, slow heart beat

## CN(CC1CCN(CCc2ccc(F)cc2)CC1)C(=O)c1ccsc1 [ChemBridge ID 26410496]
Embryonic zebrafish; Prediction: Cardiac
  Hit (predicted phenotype observed): Yes
Embryonic zebrafish
  Phenotype Observed: Pericardial edema, no heart beat

## COC(=O)c1ccc(-c2nc(CN(C)C(C)c3nc(C)cs3)c(C)o2)cc1 (stereo not drawn) [ChemBridge ID 34105851]
Embryonic zebrafish; Prediction: Body Axis
  Hit (predicted phenotype observed): Yes
Embryonic zebrafish
  Phenotype Observed: Small body (no head)

## OCCC1CN(Cc2ccc(F)cc2F)CCN1CCCc1ccccc1 (stereo not drawn) [ChemBridge ID 35983174]
Embryonic zebrafish; Prediction: Cardiac
  Hit (predicted phenotype observed): Yes
Embryonic zebrafish; Prediction: Cardiac Only
  Hit (predicted phenotype observed): Yes
Embryonic zebrafish
  Phenotype Observed: Pericardial edema, no heart beat

## CN(CC1CCN(CCc2ccc(Cl)cc2)CC1)C(=O)C1=CCCCC1 [ChemBridge ID 37690524]
Embryonic zebrafish; Prediction: Cardiac
  Hit (predicted phenotype observed): Yes
Embryonic zebrafish
  Phenotype Observed: Pericardial edema, no heart beat

## CCOC(=O)C1(Cc2cccc(OC)c2)CCCN(Cc2nccn2CC)C1 (stereo not drawn) [ChemBridge ID 38433186]
Embryonic zebrafish; Prediction: Pigmentation
  Hit (predicted phenotype observed): Yes
Embryonic zebrafish; Prediction: Pigmentation Only
  Hit (predicted phenotype observed): Yes
Embryonic zebrafish
  Phenotype Observed: No pigmentation

## CCOC(=O)C1(CCOc2ccccc2)CCN(Cc2ccc(OC)cc2)CC1 [ChemBridge ID 38617825]
Embryonic zebrafish; Prediction: Cardiac
  Hit (predicted phenotype observed): No
Embryonic zebrafish
  Phenotype Observed: Dead (48 h)

## CN(CC1CCN(CCc2ccc(Cl)cc2)CC1)C(=O)c1cccc(N(C)C)c1 [ChemBridge ID 39911836]
Embryonic zebrafish; Prediction: Cardiac
  Hit (predicted phenotype observed): Yes
Embryonic zebrafish
  Phenotype Observed: Pericardial edema, no heart beat

## C[C@@H]1CN(C(=O)c2cc(COc3ccc4ncccc4c3)on2)C[C@H](C)O1 [ChemBridge ID 44889923]
Embryonic zebrafish; Prediction: Delay/Arrest
  Hit (predicted phenotype observed): Yes
Embryonic zebrafish
  Phenotype Observed: Look 24 h at 48 h

## O=C(c1cc(COc2ccc3ncccc3c2)on1)N1CCC(N2CCSCC2)CC1 [ChemBridge ID 45187255]
Embryonic zebrafish; Prediction: Delay/Arrest
  Hit (predicted phenotype observed): Yes
Embryonic zebrafish
  Phenotype Observed: Bud stage at 24 h, 5-18 somites at 48 h

## O=C(c1cc(COc2ccc3ncccc3c2)on1)N1C[C@H]2CCC[C@H]1C2 [ChemBridge ID 54305680]
Embryonic zebrafish; Prediction: Delay/Arrest
  Hit (predicted phenotype observed): Yes
Embryonic zebrafish
  Phenotype Observed: Bud stage at 24 h, dead at 48 h

## COC(=O)c1ccc(-c2noc(CN(CCO)Cc3cccs3)n2)cc1 [ChemBridge ID 56638922]
Embryonic zebrafish; Prediction: Body Axis
  Hit (predicted phenotype observed): Yes
Embryonic zebrafish
  Phenotype Observed: Small heads, short bodies

## CN(CC1CCN(CCc2ccc(Cl)cc2)CC1)C(=O)c1ccsc1 [ChemBridge ID 59314184]
Embryonic zebrafish; Prediction: Cardiac
  Hit (predicted phenotype observed): Yes
Embryonic zebrafish
  Phenotype Observed: Pericardial edema, no heart beat

## CCOC(=O)C1(C/C=C/c2ccccc2)CCCN(Cc2nccn2CC)C1 (stereo not drawn) [ChemBridge ID 69904708]
Embryonic zebrafish; Prediction: Pigmentation
  Hit (predicted phenotype observed): Yes
Embryonic zebrafish; Prediction: Pigmentation Only
  Hit (predicted phenotype observed): Yes
Embryonic zebrafish
  Phenotype Observed: No pigmentation, cranial edema, slow heart beat

## COC(=O)c1ccc(-c2noc(CN(CCO)Cc3ccccc3)n2)cc1 [ChemBridge ID 86606851]
Embryonic zebrafish; Prediction: Body Axis
  Hit (predicted phenotype observed): Yes
Embryonic zebrafish
  Phenotype Observed: Some dead, alive have no head, necrotic

## CCOC(=O)C1(CCOc2ccccc2)CCN(Cc2ccccc2OC)CC1 [ChemBridge ID 87194463]
Embryonic zebrafish; Prediction: Cardiac
  Hit (predicted phenotype observed): No
Embryonic zebrafish
  Phenotype Observed: Dead (48 h)

## Cc1oc(-c2cccc(C(F)(F)F)c2)nc1CN1CCCCC1c1nccn1C (stereo not drawn) [ChemBridge ID 91866361]
Embryonic zebrafish; Prediction: Pigmentation
  Hit (predicted phenotype observed): Yes
Embryonic zebrafish
  Phenotype Observed: No pigmentation, cranial edema, slow heart beat

## CCOC(=O)C1(Cc2ccccc2)CCCN(Cc2nccn2CC)C1 (stereo not drawn) [ChemBridge ID 98334673]
Embryonic zebrafish; Prediction: Pigmentation
  Hit (predicted phenotype observed): Yes
Embryonic zebrafish; Prediction: Pigmentation Only
  Hit (predicted phenotype observed): Yes
Embryonic zebrafish
  Phenotype Observed: No pigmentation, cranial edema

## O=P(O)(O)O[C@@H]1[C@H](O)[C@H](O)[C@@H](OP(=O)(O)O)[C@H](OP(=O)(O)O)[C@H]1O [D-myo-Inositol-1,4,5-triphosphate]
Zebrafish embryos
  rescue of the developmental delay/arrest phenotype of DA5: did not observe rescue

## Phosphatidic acid
Zebrafish embryos; DA5 introduced at 5 hpf, PAC in-well at 24 hpf, phenotypes surveyed at 36 hpf
  rescue of the DA5 phenotype: rescue still observed
Zebrafish embryos; upon injection and introduction into embryonic medium, multiple time points after DA5
  rescue of the DA5 phenotype: rescued
Zebrafish embryos
  rescue of the developmental delay/arrest phenotype of DA5: rescued
Zebrafish embryos; listed as phosphatidic acid
  rescue of the developmental delay/arrest phenotype of DA5: rescue
Zebrafish embryos; zebrafish embryos treated with oligomycin A
  rescue of the phenotype of oligomycin A: did not rescue
